Data reported in article PMC12865225 (Clinical and Translational Science, 2026).

Tests used:
[1] = target: T1, OAT3 (Homo sapiens, UniProt Q8TCC7); assay: Uptake transport assay in OAT3-expressing HEK293 cells; conditions: for transport by OAT3: 2 and 50 μM, 10 min; for Vmax (pmol/106 cells/min) OAT3: uptake, 2 min
T1 sequence (Q8TCC7 1-542): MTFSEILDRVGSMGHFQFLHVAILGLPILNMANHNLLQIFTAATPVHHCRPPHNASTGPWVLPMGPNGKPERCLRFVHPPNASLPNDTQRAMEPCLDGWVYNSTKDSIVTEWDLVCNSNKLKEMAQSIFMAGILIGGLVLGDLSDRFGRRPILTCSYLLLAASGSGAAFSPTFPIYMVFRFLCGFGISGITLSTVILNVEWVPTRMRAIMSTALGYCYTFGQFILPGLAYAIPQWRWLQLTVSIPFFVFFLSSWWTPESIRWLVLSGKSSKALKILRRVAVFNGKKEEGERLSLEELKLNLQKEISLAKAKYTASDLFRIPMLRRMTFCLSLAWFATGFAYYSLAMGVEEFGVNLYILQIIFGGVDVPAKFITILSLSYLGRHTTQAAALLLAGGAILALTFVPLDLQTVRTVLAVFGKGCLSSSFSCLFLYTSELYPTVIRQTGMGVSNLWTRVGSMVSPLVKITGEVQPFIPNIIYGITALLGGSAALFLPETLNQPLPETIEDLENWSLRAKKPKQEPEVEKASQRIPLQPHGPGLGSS
Protocol: (§1) The human transporters OATP1B1, OATP1B3, OATP2B1, and OAT1‐OAT4 and a negative control protein (enhanced yellow fluorescent protein, eYFP) were transiently expressed in human embryonic kidney 293 (HEK293) cells by recombinant baculovirus‐mediated transduction. Baculoviruses carrying human genes for the transporters were prepared as reported previously. HEK293 cells were cultured in DMEM containing 10% fetal bovine serum at 37°C and 5% CO2 and passaged two to three times per week. For the transport studies, 0.05 × 10^6 cells for 48‐well plates (OATPs) or 0.06 × 10^6 cells for 24‐well plates (OATs) were seeded onto cell‐culture treated well plates coated with poly‐D‐lysine. After 1 day, cells were transduced to produce recombinant proteins by changing media to DMEM containing 30 μL (48‐well plates) or 60 μL (24‐well plates) of recombinant baculovirus and 3 mM (OATs) or 5 mM (OATPs) sodium butyrate in a total media volume of 500 μL. The cells were cultured for a further 2 days before the transport assays.
(§2) For the transport studies, media were removed and cells were washed once with warm transport uptake buffer (TP‐buffer—pH 7.4 HBSS with 25 mM HEPES and 4 mM sodium bicarbonate). Each experiment included triplicate (OATP) or duplicate (OAT) samples for every test condition. The uptake was started by removing liquid from wells and applying warm TP‐buffer (200 μL for 24‐well plates or 125 μL for 48‐well plates) containing a test compound to cells. Transport assays were terminated after a pre‐specified incubation time (reported in figure legends) by removing substrate solution and washing cells three times with cold TP‐buffer (300 μL for 48‐well plates and 400 μL for 24‐well plates). For the liquid chromatography mass spectrometry (LC–MS) analysis, compounds were extracted from cells with 125 μL (48‐well plates) or 250 μL (24‐well plates) of an ultrapure‐water solution containing 75% methanol and 0.1% formic acid, shaking at 250 RPM for 30 min. […] Samples were transferred to well plates, centrifuged at 3000 g for 30 min, and transferred to a new well plate for the analysis.
Equation (2) (the Michaelis–Menten equation) was fit to the transport kinetic assay data. […] (2) Uptake=Vmax×S/Km+S

[2] = target: T2, OATP2B1 (Homo sapiens, UniProt O94956); assay: OATP2B1 inhibition, rosuvastatin uptake into transporter-expressing HEK293 cells; format: cell-based; conditions: for Calculated R-value OATP2B1 (hepatic): R = 1 + (I in,max,u/IC50), FDA cut-off ≥ 1.1; for Calculated R-value OATP2B1 (intestinal): R = I gut/IC50, FDA cut-off ≥ 10
T2 construct: expressed in transfected cells; host or cells: HEK293 (recombinant baculovirus-mediated transduction)
T2 sequence (O94956 1-709): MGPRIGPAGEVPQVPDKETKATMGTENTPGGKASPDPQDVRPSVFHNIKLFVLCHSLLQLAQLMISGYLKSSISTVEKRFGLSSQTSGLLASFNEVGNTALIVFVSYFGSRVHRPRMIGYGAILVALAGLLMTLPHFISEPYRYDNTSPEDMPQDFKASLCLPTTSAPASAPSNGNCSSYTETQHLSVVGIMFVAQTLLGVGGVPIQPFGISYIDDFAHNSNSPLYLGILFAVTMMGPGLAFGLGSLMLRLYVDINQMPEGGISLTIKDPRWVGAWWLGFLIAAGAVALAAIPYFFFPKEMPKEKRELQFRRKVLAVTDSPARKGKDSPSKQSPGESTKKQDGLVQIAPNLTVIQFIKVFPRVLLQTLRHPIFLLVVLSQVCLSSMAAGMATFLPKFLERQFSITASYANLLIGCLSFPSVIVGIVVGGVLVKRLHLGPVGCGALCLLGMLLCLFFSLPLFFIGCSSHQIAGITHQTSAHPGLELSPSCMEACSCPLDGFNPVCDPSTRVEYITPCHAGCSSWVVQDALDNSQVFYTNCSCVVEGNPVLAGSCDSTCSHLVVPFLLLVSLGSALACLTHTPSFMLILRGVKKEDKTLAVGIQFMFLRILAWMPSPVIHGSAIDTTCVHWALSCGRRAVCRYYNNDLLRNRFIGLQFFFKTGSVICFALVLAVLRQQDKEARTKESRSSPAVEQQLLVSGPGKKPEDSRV
Protocol: as §1, §2
In the OATP inhibition assays, inhibitors in warm TP‐buffer were directly applied to cells after media removal, followed by a 30‐min preincubation step in the presence of inhibitors. […] OAT1 and OAT3 cells were lysed with 200 μL of 1 M sodium hydroxide for 10 min, and 150 μL of these samples were transferred to a black well plate for fluorescein quantification. […]
For the inhibition data analysis, the average of measured concentrations in the control cells was subtracted from the average of measured concentrations in transporter‐expressing cells for each inhibitor concentration and then normalized to the vehicle sample that represents 100% transport activity. […]

transport by OAT3 [1] | Vmax (pmol/106 cells/min) OAT3 [1] | Calculated R-value OATP2B1 (hepatic) [2] | Calculated R-value OATP2B1 (intestinal) [2] | Compound
transported | 296 pmol/106 cells/min | 1.2 | 240 | Cc1onc(-c2c(Cl)cccc2Cl)c1C(=O)N[C@@H]1C(=O)N2[C@@H]1SC(C)(C)[C@@H]2C(=O)O [Dicloxacillin]
transported | 277 pmol/106 cells/min | 1.2 | 137 | Cc1onc(-c2c(F)cccc2Cl)c1C(=O)N[C@@H]1C(=O)N2[C@@H]1SC(C)(C)[C@@H]2C(=O)O [Flucloxacillin]
